# Patent US20240197700A1, “Methods and Compositions for Treating Lysosomal Storage Disorders” (Sanford Health, priority 2021, published 2024)
# “Also recorded” adds a separate entry of the source.
# What was measured:
# Cln3^Δex7/8 mice [1] = test: Astroglial activation (GFAP) in brain of Cln3^Δex7/8 mice; assay type: in vivo, mouse
# Procedure: FIG. 22(A-B). Short-term chronic treatment with semaglutide impacts glial activation in Cln3^Δex7/8 mice. Beginning at wean, wild type and Cln3^Δex7/8 mice were treated with vehicle or semaglutide 2.571 μg/mouse, 25.71 μg/mouse) through subcutaneous injections three times a week until sacrifice at 16 weeks. Upon sacrifice, a hemisphere of the brain was sectioned at 50 microns on a vibratome; DAB staining immunohistochemistry was then performed using anti-GFAP (Dako, Z0334; 1:5000), anti-CD68 (AbD Serotec, MCA1957; 1:2000), anti-rabbit biotinylated (Vector Labs, BA-1000 1:1000), and anti-rat (Vector Labs, BA-9400 1:1000). Sections were imaged and analyzed using an Aperio Digital Pathology Slide Scanner (AT2) and associated software. Images were extracted from S1BF of the somatosensory cortex, the CA3 of the hippocampus, and the VPM/VPL of the thalamus, key brain regions for Batten disease pathology. Percent area of immunoreactivity were quantified using a threshold analysis in ImageJ™. Statistical analyses were performed using GraphPad Prism™ (v8.4.3; San Diego, CA). […] Increasing concentrations of semaglutide and corresponding genotypes are shown along the x-axis. Nested one-way ANOVA. Mean±S.E.M. Sidak's multiple comparisons test. Compared to the wild type vehicle treated group #p<0.05, ##p<0.01, ###p<0.001, ####p<0.0001. Compared to mutant vehicle treated group *p<0.05, **p<0.01, ***p<0.001, ****p<0.0001.
# Specific experimental details are included in figure legends. In general, after collection and preparation, MEFs and PNCs were dosed with vehicle or AF38469 (40 nM, 400 nM. or 4 μM) on DIV3 and DIV5. On DIV7, cells were treated with the following dyes: Hoechst 33342 (1:1000 dilution), LysoTrackerT™ Red DND-99 (1:10,000 dilution), fixed, and imaged. Mice were given vehicle or AF38469 (78.125 μg/ml, 3.125 μg/ml, 0.3125 μg/ml or 0.03125 μg/ml equating approximately to 250 μg/mouse/day, 10 μg/mouse/day, 1 μg/mouse/day, and […], respectively, given a mouse's daily water intake of approximately 3.2 ml per day) in drinking water beginning at wean. Body weight was measured bi-weekly, and a force actimeter test was performed on Cln2^R207X mice at 10 weeks of age. Body weight was measured every month for Cln3^Δex7/8 mice. At 11 and 16 weeks of age, respectively, Cln2^R207X and Cln3^Δex7/8 mice along with age matched wild type control mice were CO2 euthanized and intracardially perfused with PBS. Brains were collected and placed on a 1 mm sagittal brain block. Brains were sliced at the midline and 3 mm right of the midline. One hemisphere was fixed in 4% PFA and sectioned at 50 microns on a vibratome. Immunohistochemistry was performed on free-floating sections. For mitochondrial ATP synthase subunit C (SubC), glial fibrillary acidic protein (GFAP), and cluster of differentiation 68 (CD68) immunolabeling, primary antibodies included anti-SubC (Abcam, ab181243; 1:1000), anti-GFAP (Dako, Z0334; 1:5000), anti-CD68 (AbD Serotec, MCA1957; 1:2000), and secondary antibodies included anti-rabbit biotinylated (Vector Labs, BA-1000 1:1000) and anti-rat (Vector Labs, BA-9400 1:1000). Coverslips were mounted on slides using antifade-mounting media and were stored in the dark before imaging. Sections were imaged and analyzed using an Aperio Digital Pathology Slide Scanner (AT2) and associated software. Images were extracted from S1BF of the somatosensory cortex and the VPM/VPL of the thalamus, with multiple images taken of multiple tissues from each animal.
# Short-term chronic treatment with AF38469 impacts glial activation in Cln3^Δex7/8 mice. Beginning at wean, wild type and Cln3^Δex7/8 mice were treated with vehicle (0.2408% DMSO) or AF38469 (0.03125 μg/ml, 0.3125 μg/ml, 3.125 μg/ml, 78.125 μg/ml) continuously through the drinking water continuing until sacrifice at 16 weeks. […]
# Cln3^Δex7/8 mice [2] = test: SubC burden (immunohistochemistry) in brain of Cln3^Δex7/8 mice; assay type: in vivo, mouse
# TFE3 = TFE3 nuclear translocation time course in transfected N2A cells; assay type: cell-based, mouse; details: for TFE3 nuclear translocation (i.e., activation): overall statement, GFP-TFE3 transfected N2A cells, acute treatment
# Procedure: Treatment with AF38469 stimulates TFE3 nuclear translocation as monitored via time course study. For (A) and (B), wild type N2A cells were plated and transfected with a pEGFP-N1-TFE3 plasmid for a 24-hour incubation. Cells were treated with vehicle or AF38469 (40 nM, 400 nM) for three hours then immunocytochemistry was performed with anti-GFP (Abcam, ab13970) and 4′, -diamidino-2-phenylindole-dihydrochloride (DAPI). Cells were imaged on the Nikon AIR confocal microscope. For (C), wild type N2A cells were plated and transfected with a pEGFP-N1-TFE3 plasmid for a 24-hour incubation. Cells were dyed and imaged on the CellInsight™ CX7 High-Content Screening Platform (CX7) then treated with media containing vehicle or AF38469 (40 nM, 400 nM). Cells were imaged every 30 minutes for three hours on the CX7 with incubation between imaging sessions, and results were quantified. The statistics were analyzed using Graphpad Prism™. One-way ANOVA. Mean±S.E.M. Dunnett's multiple comparisons test compared to the vehicle treated group. *p<0.05, **p<0.01, ***p<0.001, ****p<0.0001. […] TFEB is a transcription factor that stimulates transcription of genes that are necessary for lysosomal biogenesis and function. Thus, increased TFE3 nuclear translocation is expected to stimulate lysosomal biogenesis and function.
# Since LM11A-31 improves lysosomal health and function across diverse cell models of lysosomal storage disorders, we asked whether the drug could be activating transcriptional networks that regulate lysosomal function. The transcription factors TFEB and TFE3 are master regulators of lysosomal biogenesis and function. We hypothesized that LM11A-31 could exert benefits by modulating the nuclear translocation of TFEB and/or TFE3. We tested this in an in vitro system in which GFP fusions of TFEB or TFE3 are expressed and monitored with live imaging (FIG. 15A).
Compound,"astrocytosis (GFAP) (Cln3^Δex7/8 mice [1]; semaglutide 2.571 μg/mouse, 25.71 μg/mouse s.c., S1BF, CA3, VPM/VPL)","SubC burden (Cln3^Δex7/8 mice [2]; semaglutide 2.571 μg/mouse s.c., CA3 of the hippocampus)","SubC burden (Cln3^Δex7/8 mice [2]; semaglutide 2.571 μg/mouse s.c., VPM/VPL of the thalamus)","accumulation of mitochondrial ATP synthase subunit C (SubC) (Cln3^Δex7/8 mice [2]; semaglutide 2.571 μg/mouse, 25.71 μg/mouse s.c., S1BF of the somatosensory cortex)","SubC burden (Cln3^Δex7/8 mice [2]; semaglutide 25.71 μg/mouse s.c., CA3 of the hippocampus)","SubC burden (Cln3^Δex7/8 mice [2]; semaglutide 25.71 μg/mouse s.c., VPM/VPL of the thalamus)","TFE3 nuclear translocation (TFE3; 100 nM and 1 μM, 90 minutes of incubation)","TFE3 nuclear translocation (i.e., activation) (TFE3)","astroglial activation (GFAP) (Cln3^Δex7/8 mice [1]; LM11A-31 0.6 mg/mL, VPM/VPL of the thalamus and somatosensory cortex)","TFE3 nuclear translocation (TFE3; 40 nM and 400 nM, 90 minutes of incubation, N2A cells, vs vehicle)","TFE3 nuclear translocation (TFE3; 40 nM, 180 minutes of incubation, N2A cells)","TFE3 nuclear translocation (TFE3; 400 nM, 180 minutes of incubation, N2A cells)","astroglial activation (GFAP) (Cln3^Δex7/8 mice [1]; 0.03125 μg/ml, 0.3125 μg/ml, VPM/VPL of the thalamus)","astroglial activation (GFAP) (Cln3^Δex7/8 mice [1]; 0.03125 μg/ml, somatosensory cortex)","astroglial activation (GFAP) (Cln3^Δex7/8 mice [1]; AF38469 higher doses 3.125 μg/ml, 78.125 μg/ml, VPM/VPL of the thalamus and somatosensory cortex)","GFAP reactivity (Cln3^Δex7/8 mice [1]; lower doses, somatosensory cortex and the thalamus, summary statement)","SubC accumulation (Cln3^Δex7/8 mice [2]; overall statement, short term treatment, Cln3^Δex7/8)"
semaglutide,had no significant effect,had no significant effect,had no significant effect,had no significant effect,significantly reduced,significantly elevated,,,,,,,,,,,
"CC[C@H](C)[C@H](N)C(=O)NCCN1CCOCC1 [LM11A-31, N-[2-(morpholin-4-yl)ethyl]-L-isoleucinamide]",,,,,,,significant increase,stimulated,decreasing trend; also recorded: trends towards decreased levels; also recorded: had no significant decrease,,,,,,,,
"Cc1cccc(NC(=O)c2ccc(C(F)(F)F)cc2C(=O)O)n1 [AF38469, 2-((6-methylpyridin-2-yl)carbamoyl)-5-(trifluoromethyl)benzoic acid]",,,,,,,,stimulates,,significant increase,return to baseline,trend towards increased nuclear translocation,significantly and potently decreased,significantly decreased,increased or had no impact; also recorded: had no impact,significantly decreased,reduces
